# Results reported in the OligoGym collection.
# Several values for one entry are separate records, joined by “and”; a condition that tells them apart may be missing. Identical values can stand only once. After the bases stand the sugars from the 5' end (letter, count) and the backbone: PS all phosphorothioate, else s phosphorothioate and o phosphodiester by linkage. Methylation of C is not given here. e = 2'-O-(2-methoxyethyl) (MOE); k = constrained ethyl (cEt); d = 2'-deoxy (DNA)
# Target: SOD1
# Details: ASO
Sequence,"target mRNA inhibition (HepG2, 5 µM)","target mRNA inhibition (HepG2, 3 µM) [%]",other results
"GTTTCTCACTACAGGTA (sugars e2 k2 d8 k2 e3, PS)",25%,–,–
"GTTTCTCACTACAGGTA (sugars e2 k2 d9 k2 e2, PS)",38%,–,–
"GTTTCTCACTACAGGTACTT (sugars e5 d10 e5, PS)",30%,–,–
"GTTTTTATTCACAGGCT (sugars e3 k2 d7 k2 e3, PS)",–,10,–
"TAAGTGCCATACAGGGT (sugars e2 k2 d9 k2 e2, PS)",35%,–,–
"TAATAAGTGCCATACAG (sugars e2 k2 d8 k2 e3, PS)",22%,–,–
"TAATACCCATCTGTGAT (sugars e2 k2 d8 k2 e3, PS)",25%,–,–
"TAATACCCATCTGTGAT (sugars e2 k2 d9 k2 e2, PS)",28%,–,–
"TACAAATCTTCCAAGTG (sugars e3 k2 d7 k2 e3, PS)",–,17,–
"TACAGGGTTTTTATTCA (sugars e3 k2 d7 k2 e3, PS)",–,11,–
"TACAGGTACTTTAAAGC (sugars e2 k2 d8 k2 e3, PS)",23%,–,–
"TACATTTCTACAGCTA (sugars kekeddddddddekek, linkages s1 o3 s8 o1 s2)",–,–,"target mRNA inhibition (A431, 0.12 µM): 0%; target mRNA inhibition (A431, 0.6 µM): 13%; target mRNA inhibition (A431, 3 µM): 36%; target mRNA inhibition (A431, 15 µM): 59%"
"TAGCCTCATAATAAGTG (sugars e2 k2 d9 k2 e2, PS)",27%,–,–
"TCACACAATTACACTTTTAA (sugars e5 d10 e5, PS)",15%,–,–
"TCACAGGCTTGAATGAC (sugars e2 k2 d8 k2 e3, PS)",28%,–,–
"TCACAGGCTTGAATGAC (sugars e2 k2 d9 k2 e2, PS)",46%,–,–
"TCACTACAGGTACTTTA (sugars e2 k2 d8 k2 e3, PS)",27%,–,–
"TCACTACAGGTACTTTA (sugars e2 k2 d9 k2 e2, PS)",35%,–,–
"TCACTGGTCCATTACTT (sugars e3 k2 d7 k2 e3, PS)",–,15,–
"TCAGACTACATCCAAGG (sugars e2 k2 d8 k2 e3, PS)",–,81,"target mRNA inhibition (HepG2, 0.1875 µM): 37%; target mRNA inhibition (HepG2, 0.75 µM): 71%; target mRNA inhibition (HepG2, 4 µM): 79%; target mRNA inhibition (HepG2, 12 µM): 92%"
"TCAGACTACATCCAAGG (sugars e2 k2 d9 k2 e2, PS)",–,75,"target mRNA inhibition (HepG2, 0.1875 µM): 0%; target mRNA inhibition (HepG2, 0.75 µM): 47%; target mRNA inhibition (HepG2, 4 µM): 78%; target mRNA inhibition (HepG2, 12 µM): 90%"
"TCATAATAAGTGCCATA (sugars e2 k2 d8 k2 e3, PS)",28%,–,–
"TCATAATAAGTGCCATA (sugars e2 k2 d9 k2 e2, PS)",34%,–,–

Sequence,"target mRNA inhibition (HepG2, 5 µM)","target mRNA inhibition (HepG2, 3 µM) [%]",other results
"TCCAAGGGAATGTTTAT (sugars e3 k2 d7 k2 e3, PS)",–,32,–
"TCCAAGTGATCATAAAT (sugars e2 k2 d8 k2 e3, PS)",42%,–,–
"TCCACCTTTGCCCAAGT (sugars e3 k2 d7 k2 e3, PS)",–,88,–
"TCGCCCTTCAGCACGCA (sugars e2 k2 d9 k2 e2, PS)",61% and 58% and 71%,–,"target mRNA inhibition (HepG2, 4 µM): 63% and 60% and 54%; target mRNA inhibition (HepG2, 12 µM): 74%"
"TCGCCCTTCAGCACGCA (sugars e3 k2 d7 k2 e3, PS)",–,31,–
"TCTCACTACAGGTACTT (sugars e2 k2 d8 k2 e3, PS)",42%,–,–
"TCTGGATAGAGGATTAA (sugars e3 k2 d7 k2 e3, PS)",–,25,–
"TCTTCATTTCCACCTTT (sugars e3 k2 d7 k2 e3, PS)",–,31,–
"TCTTCCAAGTGATCATAAAT (sugars e5 d10 e5, PS)",12%,–,–
"TGATCATAAATCAGTTT (sugars e2 k2 d9 k2 e2, PS)",38%,–,–
"TGATGCAATGGTCTCCTGAG (sugars e5 d10 e5, PS)",1%,–,–
"TGATTTAAGTCTGGCAA (sugars e2 k2 d8 k2 e3, PS)",52%,–,–
"TGCCCTGCACTGGGCCGTCG (sugars e5 d10 e5, PS)",–,–,"target mRNA inhibition (HepG2, 4 µM): 38%"
"TGCCTCTCTTCATCCTTTGG (sugars e5 d10 e5, PS)",–,32,–
"TGGACCACCAGTGTGCGGCC (sugars e5 d10 e5, PS)",28%,–,–
"TGGCAAAATACAGGTCA (sugars e3 k2 d7 k2 e3, PS)",–,26,–
"TGTGATTTAAGTCTGGC (sugars e2 k2 d9 k2 e2, PS)",58%,–,–
"TGTTTAATGTTTATCA (sugars kekeddddddddekek, linkages s1 o3 s8 o1 s2)",–,–,"target mRNA inhibition (A431, 0.12 µM): 6%; target mRNA inhibition (A431, 0.6 µM): 14%; target mRNA inhibition (A431, 3 µM): 15%; target mRNA inhibition (A431, 15 µM): 32%; target mRNA inhibition (HepG2, 0.222 µM): 42%; target mRNA inhibition (HepG2, 0.667 µM): 54%; target mRNA inhibition (HepG2, 2 µM): 69%; target mRNA inhibition (HepG2, 6 µM): 86%"
"TGTTTATCAGGATACATTTC (sugars e5 d10 e5, PS)",52%,–,–
"TTAAGTCTGGCAAAATA (sugars e3 k2 d7 k2 e3, PS)",–,2,–
"TTAATACCCATCTGTGA (sugars e2 k2 d8 k2 e3, PS)",28%,–,–
"TTAATGTTTATCAGGATA (sugars e5 d8 e5, linkages s1 o3 s9 o2 s2)",–,–,"target mRNA inhibition (A431, 0.12 µM): 18%; target mRNA inhibition (A431, 0.6 µM): 7%; target mRNA inhibition (A431, 3 µM): 11%; target mRNA inhibition (A431, 15 µM): 9%; target mRNA inhibition (HepG2, 0.222 µM): 0%; target mRNA inhibition (HepG2, 0.667 µM): 17%; target mRNA inhibition (HepG2, 2 µM): 47%; target mRNA inhibition (HepG2, 6 µM): 72%"
